Data taken from patent EP0021678B1, “1-Sulpho-2-oxoazetidine derivatives, their production and pharmaceutical compositions thereof” (Takeda Chemical Industries, Ltd., priority 1979, dated 1981).
Read-outs that look alike come from different tables or passages of the source.

Assays:
Assay in all cases: Anti-bacterial test, minimum inhibitory concentration on agar
Type in all cases: cell-based
[1] = tested on: Streptococcus faecium IFO 3128; conditions: Streptococcus faecium IFO 3128, medium B—TSA; for MIC: Enterococcus faecium, IFO3128, read-out: Minimum inhibitory concentration
Description: (§1) The compound (I) thus obtained is useful as a drug, being active against certain gram-positive and gram-negative bacteria. By way of example, the compounds are active against the following micro-organisms.
(§2) The media and compounds employed in the anti-bacterial test are as follows: • Media: • TSA = Trypticase soy agar • [Baltimore Biologicals (U.S.A.)] • B-TSA = Blood trypticase soy agar • Compounds: • Compound A = Sodium 3-[2-(2-amino-4-thiazolyl)-2-methoxyiminoacetamido]-2-oxo-azetidine-1-sulphonate • Compound B = Sodium 3-[D(-)-N-(4-ethyl-2,3-dioxo-1-piperazinocarbonyl)-phenyl-glycin- amido]-2-oxoazetidine-1-sulphonate • Compound C = Sodium 3-[D(-)-N-(4-ethyl-2,3-dioxo-1-piperazinocarbonyl)phenylglycinamido]-3-methoxy-2-oxoazetidine-1-sulphonate • Compound D = Sodium 3-[2-(4-ethyl-2,3-dioxo-1-piperazinocarboxamido)-2-(2-amino-4-thiazolyl)-acetamido]-2-oxoazetidine-1-sulphonate • Compound E = Sodium 3-[DL-2-(4-ethyl-2,3-dioxo-1-piperazinocarboxamido)-2-thienylacetamido]-2-oxoazetidine-1-sulphonate • Compound F = Sodium 3-[D-2-(4-ethyl-2,3-dioxo-1-piperazinocarboxamido)-2-thienylacetamido]-2-oxoazetidine-1-sulphonate • Compound G = Sodium 3-[D-2-(4-n-octyl-2,3-dioxo-1-piperazinocarboxamido)-2-phenylacetamido]-2-oxoazetidine-1-sulphonate • Compound H = Sodium 3-[2-(4-n-octyl-2,3-dioxo-1-piperazinocarboxamido)-2-(2-amino-4-thiazolyl)-acetamido]-2-oxoazetidine-1-sulphonate • Compound I = Sodium 3-[D-2-[(2-oxo-3-furfurylideneaminoimidazolidin-1-yl)-carboxamido]-2-phenylacetamido]-2-oxoazetidine-1-sulphonate • Compound J = Sodium 3-[2-(4-n-octyl-2,3-dioxo-1-piperazinocarboxamido)-2-thienylacetamido]-2-oxoazetidine-1-sulphonate • Compound K = Sodium 3-[D-2-[[2-oxo-3-(thiophen-2-aidoimino)-imidazolidin-1-yl]-carboxamido]-2-phenylacetamido]-2-oxoazetidine-1-sulphonate • Compound L = Sodium 3-[2-[(2-oxo-3-furfurylideneaminoimidazolidin-1-yl)-carboxamido]-2-thienylacetamido]-2-oxoazetidine-1-sulphonate

[2] = tested on: Streptococcus mitis America; conditions: Streptococcus mitis America, medium B—TSA; for MIC: read-out: Minimum inhibitory concentration
Description: as §1, §2

[3] = tested on: Bordetella bronchiseptica Sagami; conditions: Bordetella bronchiseptica Sagami, medium B—TSA; for MIC: read-out: Minimum inhibitory concentration
Description: as §1, §2

[4] = tested on: Proteus morganii IFO 3168; conditions: Proteus morganii IFO 3168, medium TSA; for MIC: Morganella morganii, IFO3168, read-out: Minimum inhibitory concentration
Description: as §1, §2

[5] = tested on: Proteus vulgaris IFO 3988; conditions: Proteus vulgaris IFO 3988, medium TSA; for MIC: IFO3988, read-out: Minimum inhibitory concentration
Description: as §1, §2

[6] = tested on: Streptococcus pyogenes E—14; conditions: Streptococcus pyogenes E—14, medium B—TSA; for MIC: read-out: Minimum inhibitory concentration
Description: as §1, §2

Klebsiella pneumoniae DT = conditions: Klebsiella pneumoniae DT, medium TSA; for MIC: read-out: Minimum inhibitory concentration
Description: as §1, §2

[7] = tested on: Staphylococcus aureus 308A—1; conditions: Staphylococcus aureus 308A—1, medium TSA; for MIC: read-out: Minimum inhibitory concentration
Description: as §1, §2

[8] = tested on: Serratia marcescens IFO 12648; conditions: Serratia marcescens IFO 12648, medium TSA; for MIC: IFO12648, read-out: Minimum inhibitory concentration
Description: as §1, §2

[9] = tested on: Pseudomonas aeruginosa IFO 3455; conditions: Pseudomonas aeruginosa IFO 3455, medium TSA; for MIC: IFO3455, read-out: Minimum inhibitory concentration
Description: as §1, §2

[10] = tested on: Escherichia coli NIHJ JC—2; conditions: Escherichia coli NIHJ JC—2, medium TSA; for MIC: read-out: Minimum inhibitory concentration
Description: as §1, §2

[11] = tested on: Corynebacterium diphtheriae Toronto; conditions: Corynebacterium diphtheriae Toronto, medium B—TSA; for MIC: read-out: Minimum inhibitory concentration
Description: as §1, §2

[12] = tested on: Streptococcus pneumoniae Type I; conditions: Streptococcus pneumoniae Type I, medium B—TSA; for MIC: read-out: Minimum inhibitory concentration
Description: as §1, §2

[13] = tested on: Pseudomonas aeruginosa U 31; conditions: Pseudomonas aeruginosa U 31, medium TSA; for MIC: U31, read-out: Minimum inhibitory concentration
Description: as §1, §2

[14] = tested on: Enterobacter cloacae IFO 12937; conditions: Enterobacter cloacae IFO 12937, medium TSA; for MIC: IFO12937, read-out: Minimum inhibitory concentration
Description: as §1, §2

Escherichia coli O—111 = conditions: medium TSA
Description: as §1, §2

[15] = tested on: Citrobacter freundii IFO 12681; conditions: Citrobacter freundii IFO 12681, medium TSA; for MIC: IFO12681, read-out: Minimum inhibitory concentration
Description: as §1, §2

[16] = tested on: Acinetobacter calcoaceticus IFO 13006; conditions: Acinetobacter calcoaceticus IFO 13006, medium TSA; for MIC: IFO13006, read-out: Minimum inhibitory concentration
Description: as §1, §2

Escherichia coli T-7 = conditions: for Minimum inhibitory concentration: medium TSA; for MIC: T7, medium TSA
Description: as §1, §2

[17] = tested on: Proteus mirabilis IFO 3849; conditions: Proteus mirabilis IFO 3849, medium TSA; for MIC: IFO3849, read-out: Minimum inhibitory concentration
Description: as §1, §2

[18] = tested on: Streptococcus pyogenes S—8; conditions: Streptococcus pyogenes S—8, medium B—TSA; for MIC: read-out: Minimum inhibitory concentration
Description: as §1, §2

[19] = tested on: Staphylococcus aureus 1840; conditions: Staphylococcus aureus 1840, medium TSA; for MIC: read-out: Minimum inhibitory concentration
Description: as §1, §2

[20] = tested on: Staphylococcus aureus FDA209P; conditions: Staphylococcus aureus FDA209P; for MIC: Staphylococcus aureus, FDA209P, read-out: Minimum inhibitory concentration
Description: as §1, §2

Candida albicans TA = conditions: Candida albicans TA, medium TSA; for MIC: read-out: Minimum inhibitory concentration
Description: as §1, §2

## CCN1CCN(C(=O)N[C@H](C(=O)NC2CN(S(=O)(=O)[O-])C2=O)c2cccs2)C(=O)C1=O.[Na+] (stereo partly drawn) [Compound F, Sodium 3-[D-2-(4-ethyl-2,3-dioxo-1-piperazinocarboxamido)-2-thienylacetamido]-2-oxoazetidine-1-sulphonate]
[1]
  Minimum inhibitory concentration: >100 µg/mL
[2]
  Minimum inhibitory concentration: 25 µg/mL
[3]
  Minimum inhibitory concentration: >100 µg/mL
[4]
  Minimum inhibitory concentration: 12.5 µg/mL
[5]
  Minimum inhibitory concentration: <0.1 µg/mL
[6]
  Minimum inhibitory concentration: 3.13 µg/mL
Klebsiella pneumoniae DT
  Minimum inhibitory concentration: 0.2 µg/mL
[7]
  Minimum inhibitory concentration: 6.25 µg/mL
[8]
  Minimum inhibitory concentration: 1.56 µg/mL
[9]
  Minimum inhibitory concentration: 6.25 µg/mL
[10]
  Minimum inhibitory concentration: 0.78 µg/mL
[11]
  Minimum inhibitory concentration: 0.78 µg/mL
[12]
  Minimum inhibitory concentration: 6.25 µg/mL
[13]
  Minimum inhibitory concentration: >100 µg/mL
[14]
  Minimum inhibitory concentration: 50 µg/mL
Escherichia coli O—111
  Minimum inhibitory concentration: 0.2 µg/mL
[15]
  Minimum inhibitory concentration: 1.56 µg/mL
[16]
  Minimum inhibitory concentration: 25 µg/mL
Escherichia coli T-7
  Minimum inhibitory concentration: >100 µg/mL
[17]
  Minimum inhibitory concentration: 0.78 µg/mL
[18]
  Minimum inhibitory concentration: 3.13 µg/mL
[19]
  Minimum inhibitory concentration: 25 µg/mL
[20]; medium B—TSA
  Minimum inhibitory concentration: 6.25 µg/mL
[20]; medium TSA
  Minimum inhibitory concentration: 6.25 µg/mL
Candida albicans TA
  Minimum inhibitory concentration: >100 µg/mL

## CCN1CCN(C(=O)NC(C(=O)NC2CN(S(=O)(=O)O)C2=O)c2csc(N)n2)C(=O)C1=O (stereo not shown) [Compound D, Sodium 3-[2-(4-ethyl-2,3-dioxo-1-piperazinocarboxamido)-2-(2-amino-4-thiazolyl)-acetamido]-2-oxoazetidine-1-sulphonate]
[1]
  MIC: > 100 µg/mL
[2]
  MIC: 25 µg/mL
[3]
  MIC: > 100 µg/mL
[4]
  MIC: 12.5 µg/mL
[5]
  MIC: 0.1 µg/mL
[6]
  MIC: 3.13 µg/mL
Klebsiella pneumoniae DT
  MIC: 0.2 µg/mL
[7]
  MIC: 6.25 µg/mL
[8]
  MIC: 0.78 µg/mL
[9]
  MIC: 3.13 µg/mL
[10]
  MIC: 0.39 µg/mL
[11]
  MIC: 3.13 µg/mL
[12]
  MIC: 6.25 µg/mL
[13]
  MIC: > 100 µg/mL
[14]
  MIC: 25 µg/mL
Escherichia coli O—111
  MIC: 0.1 µg/mL
[15]
  MIC: 1.56 µg/mL
[16]
  MIC: 50 µg/mL
Escherichia coli T-7
  MIC: > 100 µg/mL
[17]
  MIC: 25 µg/mL
[18]
  MIC: 3.13 µg/mL
[19]
  MIC: 25 µg/mL
[20]; medium B—TSA
  MIC: 12.5 µg/mL
[20]; medium TSA
  MIC: 12.5 µg/mL
Candida albicans TA
  MIC: > 100 µg/mL

## CCCCCCCCN1CCN(C(=O)N[C@@H](C(=O)NC2CN(S(=O)(=O)O)C2=O)c2ccccc2)C(=O)C1=O (stereo partly drawn) [Compound G, Sodium 3-[D-2-(4-n-octyl-2,3-dioxo-1-piperazinocarboxamido)-2-phenylacetamido]-2-oxoazetidine-1-sulphonate]
[1]
  MIC: > 100 µg/mL
[2]
  MIC: 25 µg/mL
[3]
  MIC: > 100 µg/mL
[4]
  MIC: 1.56 µg/mL
[5]
  MIC: 0.78 µg/mL
[6]
  MIC: 1.56 µg/mL
Klebsiella pneumoniae DT
  MIC: 0.78 µg/mL
[7]
  MIC: 0.78 µg/mL
[8]
  MIC: 1.56 µg/mL
[9]
  MIC: 1.56 µg/mL
[10]
  MIC: 3.13 µg/mL
[11]
  MIC: 25 µg/mL
[12]
  MIC: 3.13 µg/mL
[13]
  MIC: 25 µg/mL
[14]
  MIC: 6.25 µg/mL
Escherichia coli O—111
  MIC: 0.78 µg/mL
[15]
  MIC: 3.13 µg/mL
[16]
  MIC: 3.13 µg/mL
Escherichia coli T-7
  MIC: > 100 µg/mL
[17]
  MIC: 3.13 µg/mL
[18]
  MIC: 1.56 µg/mL
[19]
  MIC: 25 µg/mL
[20]; medium B—TSA
  MIC: 3.13 µg/mL
[20]; medium TSA
  MIC: 1.56 µg/mL
Candida albicans TA
  MIC: > 100 µg/mL

## CCN1CCN(C(=O)NC(C(=O)NC2CN(S(=O)(=O)[O-])C2=O)c2cccs2)C(=O)C1=O.[Na+] (racemic) [Compound E, Sodium 3-[DL-2-(4-ethyl-2,3-dioxo-1-piperazinocarboxamido)-2-thienylacetamido]-2-oxoazetidine-1-sulphonate]
[1]
  Minimum inhibitory concentration: >100 µg/mL
[2]
  Minimum inhibitory concentration: 25 µg/mL
[3]
  Minimum inhibitory concentration: >100 µg/mL
[4]
  Minimum inhibitory concentration: 12.5 µg/mL
[5]
  Minimum inhibitory concentration: <0.1 µg/mL
[6]
  Minimum inhibitory concentration: 1.56 µg/mL
Klebsiella pneumoniae DT
  Minimum inhibitory concentration: 0.78 µg/mL
[7]
  Minimum inhibitory concentration: 6.25 µg/mL
[8]
  Minimum inhibitory concentration: 3.13 µg/mL
[9]
  Minimum inhibitory concentration: 3.13 µg/mL
[10]
  Minimum inhibitory concentration: 1.56 µg/mL
[11]
  Minimum inhibitory concentration: 0.39 µg/mL
[12]
  Minimum inhibitory concentration: 3.13 µg/mL
[13]
  Minimum inhibitory concentration: >100 µg/mL
[14]
  Minimum inhibitory concentration: 3.13 µg/mL
Escherichia coli O—111
  Minimum inhibitory concentration: 0.2 µg/mL
[15]
  Minimum inhibitory concentration: 3.13 µg/mL
[16]
  Minimum inhibitory concentration: 50 µg/mL
Escherichia coli T-7
  Minimum inhibitory concentration: >100 µg/mL
[17]
  Minimum inhibitory concentration: 0.78 µg/mL
[18]
  Minimum inhibitory concentration: 3.13 µg/mL
[19]
  Minimum inhibitory concentration: 25 µg/mL
[20]; medium B—TSA
  Minimum inhibitory concentration: 6.25 µg/mL
[20]; medium TSA
  Minimum inhibitory concentration: 6.25 µg/mL
Candida albicans TA
  Minimum inhibitory concentration: >100 µg/mL
